Measurements as given in patent US11033604B2, “Reagents and methods for treating bacterial infection” (priority 2018, dated 2021).
Positions of bridges follow the written chain, without caps; N, C: chain ends. Non-standard residues stand in square brackets, D forms with d. No end group written: not given here.

Legend:
[1] = tested on: S. aureus SH1000 WT biofilms; assay: ThT fluorescence assay of amyloid formation in S. aureus SH1000 WT biofilm cultures; type: cell-based, Staphylococcus aureus; conditions: 24 h, 37° C., peptide 80 μM unless otherwise noted, vs peptide-free control
Procedure: We developed a novel protocol to identify amyloid fibril formation during biofilm development in two S. aureus strains—SH1000 WT, a rsbU^+ laboratory strain^27, and MN8, a clinical strain isolated from the human urogenital tract (Table 1). After 24 hours of batch growth in microtiter plates, biofilms were washed and incubated with Thioflavin T (ThT), and the resulting fluorescence signals served as a proxy for the extent of PSM fibril formation in the EM (FIG. 1A). Next, we utilized this assay to test α-sheet amyloid inhibitor designs and control peptides (sequences provided in Table 2) in batch biofilm cultures. The first inhibitor used is AP90 (Alternating Peptide #90, referred to as α1 previously^25,26). […]
Overnight cultures of S. aureus (see Table 1 for a list of strains used in this study) were spun down and re-suspended in fresh Luria-Bertani (LB) media to an optical density of 0.1 (600 nm). […] The detached biofilm suspensions were transferred to a 96-well black-walled plate (Corning, TC-treated polystyrene) and ThT fluorescence was read at 438/495 nm on a Perkin-Elmer Enspire™ plate reader. Fluorescence measurements were corrected by subtracting the background intensity of identical samples without ThT. […] After 15 minutes of incubation at room temperature, fluorescence ratios of the two dyes were determined using a Perkin-Elmer Enspire™ plate reader.

[2] = tested on: E. coli UTI89 vsfGFP-9 biofilms; assay: Immune clearance test: phagocytosis of biofilm bacteria by RAW 264.7 macrophages (flow cytometry); type: cell-based; conditions: RAW 264.7 cells, 10:1 bacteria:cell, 30 min, 37° C.
Procedure: FIG. 14. The macrophages are not able to phagocytose biofilm-associated bacteria (A). Administration of AP193 breaks up the biofilms and yields a greater fraction of free-swimming bacteria that are susceptible to phagocytosis (B).
To investigate this proposition, biofilms were cultivated in the presence or absence of synthetic α-sheet peptides (shown for AP193 in FIG. 14) and then co-incubated with murine macrophages. A chromosome-based GFP derivative of E. coli UTI89, vsfGFP-9, was used to visualize the extent of phagocytosis in each case with flow cytometry. Murine monocyte/macrophage-like cells, RAW 264.7, were cultured in DMED+10% FBS at 37° C. in 75 cm^2 flasks. Biofilms were grown in 48 well plates for 48 h in YESCA broth+4% DMSO at 26° C. Planktonic cells were aspirated and biofilms rinsed and gently detached from plates using sterile PBS. The suspensions were combined in a 10:1 (bacteria:cell) ratio with RAW 264.7 cells and incubated for 30 min at 37° C. in PBS to allow uptake of bacteria by macrophages. Trypsin was added at a concentration of 0.25% and incubated for 10 min to remove any bacteria bound to the external surfaces of the RAW 264.7 cells. […] Cells were then gated according to positive GFP (phagocytosed bacteria) using bacteria-free controls on a FACS Cantoll flow cytometer, and the percentage of cells positive for GFP was recorded and analyzed.

Substance | Reduction of amyloid fibril formation (ThT fluorescence) [1] [%] | Susceptibility of biofilm bacteria to phagocytosis [2]
RGEmNlCwMNEYSGWcMnLkMGR (RGE[dM]N[dL]C[dW]MNEYSGW[dC]M[dN]L[dK]MGR; disulfide 7-16 (inferred)) [AP407, variant of AP90 with a disulfide bond] | 56 | –
RGEmNyFwMNEYYGWtMnCkMGR (RGE[dM]N[dY]F[dW]MNEYYGW[dT]M[dN]C[dK]MGR) [AP193, hydrophobic AP90 derivative, variant to support different chemical coupling reactions] | – | more susceptible to phagocytosis
